IC50 data for 57 compounds are collected here from patent US12509459B2, “Inhibitors of NLRP3 inflammasome” (BioAge Labs, Inc., priority 2024, dated 2025).

The experiment deals with NLRP3 (Homo sapiens, UniProt Q96P20). The experiment can be described thus: THP-1 cell-based NLRP3 activation assay. Further details: endogenous in cells; host or cells: THP-1 cells (PMA-differentiated, LPS-primed, nigericin-stimulated). The conditions noted are these: PMA-differentiated THP-1 cells, LPS 100 ng/mL then 10 μM nigericin. How it is done: THP-1 cells are cultured in complete media (CM) until they reach logarithmic growth and achieve a viability >90%. CM is composed of RPMI-1640 (+Glutamax)/10% fetal bovine serum/55 μM β-mercaptoethanol/pen/strep. Cells are spun down and resuspended to 1,000,000 cells/mL in CM containing either 20 nM or 500 nM PMA. 150,000 cells (150 μL) are then added to each well of a 96-well TC plate and incubated for either 24 hr or 3 hr, respectively, in a standard cell culture incubator (37° C.; 5% CO2). After this incubation, the plate is tilted and media carefully removed. 200 μL of CM containing 100 ng/mL LPS is then added to the wells and the cells incubated an additional 3 hrs. The media is again removed and replaced with Opti-Mem medium containing pre-determined dilutions of test compounds in replicate wells. After a 30 min incubation, 10 μM nigericin (final concentration) in Opti-Mem medium with the corresponding concentration of compound is added to the wells for an additional 1 hr. Positive control wells contain 10 μM nigericin in Opti-Mem in the absence of test compound, while negative control wells contain Opti-Mem only. […] Once supernatants are removed, the relative viability of adherent cells in the 96-well TC plate are determined using a CellTiter-Glo® luminescent cell viability assay (Promega).
NLRP3, sequence (Q96P20 whole entry): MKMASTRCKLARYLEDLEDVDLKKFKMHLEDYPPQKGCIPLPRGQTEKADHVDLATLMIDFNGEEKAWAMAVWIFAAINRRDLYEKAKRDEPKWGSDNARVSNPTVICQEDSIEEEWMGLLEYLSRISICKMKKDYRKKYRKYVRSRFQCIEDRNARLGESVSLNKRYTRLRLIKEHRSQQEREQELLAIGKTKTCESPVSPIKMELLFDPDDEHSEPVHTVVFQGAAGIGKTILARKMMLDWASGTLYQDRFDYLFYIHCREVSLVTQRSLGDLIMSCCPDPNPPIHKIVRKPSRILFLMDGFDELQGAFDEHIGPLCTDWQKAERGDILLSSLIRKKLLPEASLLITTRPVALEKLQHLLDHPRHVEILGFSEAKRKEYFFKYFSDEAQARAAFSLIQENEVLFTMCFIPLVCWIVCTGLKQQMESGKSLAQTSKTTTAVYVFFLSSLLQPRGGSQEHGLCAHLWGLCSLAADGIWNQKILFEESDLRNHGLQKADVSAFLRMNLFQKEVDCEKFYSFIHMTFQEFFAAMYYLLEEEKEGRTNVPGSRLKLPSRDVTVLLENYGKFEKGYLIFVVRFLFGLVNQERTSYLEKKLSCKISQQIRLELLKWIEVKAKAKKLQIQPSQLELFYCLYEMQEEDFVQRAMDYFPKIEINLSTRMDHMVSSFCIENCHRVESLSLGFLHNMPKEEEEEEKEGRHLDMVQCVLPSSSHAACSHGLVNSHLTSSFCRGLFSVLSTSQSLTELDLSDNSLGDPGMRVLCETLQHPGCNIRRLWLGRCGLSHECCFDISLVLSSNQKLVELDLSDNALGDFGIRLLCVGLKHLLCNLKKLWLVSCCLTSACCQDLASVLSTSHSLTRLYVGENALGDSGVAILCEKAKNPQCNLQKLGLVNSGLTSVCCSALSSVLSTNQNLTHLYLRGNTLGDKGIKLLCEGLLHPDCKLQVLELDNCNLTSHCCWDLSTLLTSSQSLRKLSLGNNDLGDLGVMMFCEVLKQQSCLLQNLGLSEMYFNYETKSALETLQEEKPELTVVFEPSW
As a reminder, the IC50 is the concentration that inhibits the measured activity by half. A lower IC50 goes with greater potency. Compound `CCOc1cc(C(=O)N(C)[C@H](c2cncc3cn[nH]c23)[C@H]2CCNC2)ccc1-c1cccc(F)c1` (single isomer, unassigned) [Compound 085] yielded an IC50 below 100 nM.
In the case of `CCOc1cc(C(=O)N(C)[C@@H](c2cncc3cn[nH]c23)[C@@H]2CCNC2)ccc1-c1cccc(F)c1` (single isomer, unassigned) [Compound 087] it was below 100 nM; in that of `CCOc1cc(C(=O)N(C)[C@H](c2cncc3cn[nH]c23)[C@@H]2CCNC2)ccc1-c1cccc(F)c1` (single isomer, unassigned) [Compound 088], 100 to 500 nM; in that of `CCOc1cc(C(=O)N(C)[C@@H](c2cncc3cn[nH]c23)[C@H]2CCNC2)ccc1-c1cccc(F)c1` (single isomer, unassigned) [Compound 089], below 100 nM.
`CCOc1cc(C(=O)N(C)[C@H](CO)c2cncc3cn[nH]c23)ccc1-c1cccc(F)c1` [Compound 001] showed an IC50 below 100 nM.
In turn, `CCOc1cc(C(=O)N(C)[C@H](CO)c2cncc3cn[nH]c23)ccc1-c1cc(F)cc(F)c1` [Compound 002] yielded an IC50 below 100 nM.
As to `CCOc1cc(C(=O)N(C)[C@H](CO)c2cncc3cn[nH]c23)ccc1-c1cc(C)cc(F)c1` [Compound 003], the half-maximal inhibitory concentration (IC50) was below 100 nM.
As to `CCOc1cc(C(=O)N(C)[C@H](CO)c2cncc3cn[nH]c23)ccc1-c1cccc(Cl)c1` [Compound 004], the IC50 is below 100 nM.
The compound `CCOc1cc(C(=O)N(C)[C@H](CO)c2cncc3cn[nH]c23)ccc1-c1ccccc1` [Compound 005] registered an IC50 below 100 nM.
The compound `CN(C(=O)c1ccc(-c2cccc(Cl)c2)c(OC2CC2)c1)[C@H](CO)c1cncc2cn[nH]c12` [Compound 006, (S)-3′-chloro-2-cyclopropoxy-N-(2-hydroxy-1-(1H-pyrazolo[4,3-c]pyridin-7-yl)ethyl)-N-methyl-[1,1′-biphenyl]-4-carboxamide] had an IC50 below 100 nM.
As to `CCOc1cc(C(=O)N(C)[C@H](C[C@H](C)O)c2cncc3cn[nH]c23)ccc1-c1cccc(Cl)c1` [Compound 008], the IC50 lay in the range of 1000 to 15000 nM.
Take `CCOc1cc(C(=O)N(C)[C@@H](CCO)c2cncc3cn[nH]c23)ccc1-c1cccc(F)c1` [Compound 009]: the IC50 is below 100 nM.
Under `CCOc1cc(C(=O)N(C)[C@@H](CCO)c2cncc3cn[nH]c23)ccc1-c1ccccc1` [Compound 010] stands 1000 to 15000 nM; under `CN(C(=O)c1ccc(-c2cccc(F)c2)c(OC2CC2)c1)[C@@H](CCO)c1cncc2cn[nH]c12` [Compound 011], 1000 to 15000 nM; under `CN(C(=O)c1ccc(-c2cccc(Cl)c2)c(OC2CC2)c1)[C@@H](CCO)c1cncc2cn[nH]c12` [Compound 012], 100 to 500 nM.
Turning to `CCOc1cc(C(=O)N(C)[C@H](COC)c2cncc3cn[nH]c23)ccc1-c1cccc(F)c1` [Compound 013], the IC50 is below 100 nM.
For the compound `CCOc1cc(C(=O)N(C)[C@H](COC)c2cncc3cn[nH]c23)ccc1-c1cccc(Cl)c1` [Compound 014], the IC50 was below 100 nM.
The compound `CCOc1cc(C(=O)N(C)[C@H](CCOC)c2cncc3cn[nH]c23)ccc1-c1cccc(F)c1` [Compound 015] showed an IC50 below 100 nM.
As to `CCOc1cc(C(=O)N(C)[C@H](CCOC)c2cncc3cn[nH]c23)ccc1-c1cccc(Cl)c1` [Compound 016], the IC50 is above 15000 nM.
As to `CCOc1cc(C(=O)N(C)[C@H](CO)c2cnc(C)c3cn[nH]c23)ccc1-c1cccc(F)c1` [Compound 017], the IC50 was below 100 nM.
As to `CCOc1cc(C(=O)N(C)[C@H](CO)c2cnc(C)c3cn[nH]c23)ccc1-c1cc(F)cc(F)c1` [Compound 018], the IC50 was below 100 nM.
`CCOc1cc(C(=O)N(C)[C@H](CO)c2cnc(C)c3cn[nH]c23)ccc1-c1cccc(Cl)c1` [Compound 019]: the IC50 was below 100 nM.
In the case of `CCOc1cc(C(=O)N(C)[C@H](CO)c2cnc(C)c3cn[nH]c23)ccc1-c1ccccc1` [Compound 020] it was 100 to 500 nM.
For `CCOc1cc(C(=O)N(C)[C@H](CO)c2cnc(C)c3cn[nH]c23)ccc1-c1cc(C)cc(F)c1` [Compound 021], the IC50 lay in the range of 100 to 500 nM.
The compound `Cc1ncc([C@@H](CO)N(C)C(=O)c2ccc(-c3cccc(F)c3)c(OC3CC3)c2)c2[nH]ncc12` [Compound 022] came in with an IC50 below 100 nM.
The compound `CCOc1cc(C(=O)N(C)[C@@H](c2cnc(C)c3cn[nH]c23)[C@@H](C)O)ccc1-c1cccc(Cl)c1` [Compound 024] registered an IC50 below 100 nM.
Under `Cc1ncc([C@@H](CCO)N(C)C(=O)c2ccc(-c3cccc(Cl)c3)c(OC3CC3)c2)c2[nH]ncc12` [Compound 026] stands below 100 nM; under `CCOc1cc(C(=O)N(C)[C@@H](CO)c2cnc(C)c3cn[nH]c23)ccc1-c1cccc(F)c1` [Compound 027], below 100 nM.
Under `CCOc1cc(C(=O)N(C)[C@@H](CCO)c2cnc(C)c3cn[nH]c23)ccc1-c1ccccc1` [Compound 028] stands above 15000 nM; under `CCOc1cc(C(=O)N(C)[C@@H](CCO)c2cnc(C)c3cn[nH]c23)ccc1-c1cccc(Cl)c1` [Compound 029], below 100 nM; under `CCOc1cc(C(=O)N(C)[C@@H](CCO)c2cnc(C)c3cn[nH]c23)ccc1-c1cccc(C#N)c1` [Compound 030], above 15000 nM.
`Cc1ncc([C@H](CCO)N(C)C(=O)c2ccc(-c3cccc(F)c3)c(OC3CC3)c2)c2[nH]ncc12` [Compound 031] showed an IC50 above 15000 nM.
In turn, `CCOc1cc(C(=O)N(C)[C@H](CO)c2cnc(CC)c3cn[nH]c23)ccc1-c1cc(C)cc(F)c1` [Compound 032] registered an IC50 of 100 to 500 nM.
`CCOc1cc(C(=O)N(C)[C@H](CO)c2cnc(CC)c3cn[nH]c23)ccc1-c1cccc(F)c1` [Compound 033] showed an IC50 below 100 nM.
`CCc1ncc([C@@H](CO)N(C)C(=O)c2ccc(-c3cccc(F)c3)c(OC3CC3)c2)c2[nH]ncc12` [Compound 034] registered an IC50 above 15000 nM.
The compound `CCc1ncc([C@@H](CO)N(C)C(=O)c2ccc(-c3cc(F)cc(F)c3)c(OC3CC3)c2)c2[nH]ncc12` [Compound 035] registered an IC50 below 100 nM.
As to `CCOc1cc(C(=O)N(C)[C@H](CO)c2cnc(CO)c3cn[nH]c23)ccc1-c1cccc(Cl)c1` [Compound 036], the IC50 is below 100 nM.
In the case of `CCOc1cc(C(=O)N(C)[C@H](CO)c2cnc(CO)c3cn[nH]c23)ccc1-c1cccc(F)c1` [Compound 037] it was below 100 nM.
In turn, `CCOc1cc(C(=O)N(C)[C@H](CCN)c2cncc3cn[nH]c23)ccc1-c1cccc(F)c1` [Compound 038] displayed an IC50 below 100 nM.
Under `CCOc1cc(C(=O)N(C)[C@H](CCNC)c2cncc3cn[nH]c23)ccc1-c1cccc(F)c1` [Compound 039] stands 1000 to 15000 nM; under `CCOc1cc(C(=O)N(CCO)Cc2cncc3cn[nH]c23)ccc1-c1cccc(F)c1` [Compound 041], below 100 nM; under `CCOc1cc(C(=O)N(CCO)Cc2cncc3cn[nH]c23)ccc1-c1cccc(Cl)c1` [Compound 042], below 100 nM.
On to `CCOc1cc(C(=O)N(CCO)Cc2cnc(N)c3cn[nH]c23)ccc1-c1cccc(C#N)c1` [Compound 043], for which the IC50 was in the range of 100 to 500 nM.
Take `CCOc1cc(C(=O)N(CCO)Cc2cnc(NC)c3cn[nH]c23)ccc1-c1cccc(C#N)c1` [Compound 044]: the concentration for half-maximal inhibition (IC50) was in the range of 100 to 500 nM.
`CCOc1cc(C(=O)N(Cc2cnc(C)c3cn[nH]c23)C2CC2O)ccc1-c1cccc(F)c1` (stereo not drawn) [Compound 045] came in with an IC50 below 100 nM.
`CCOc1cc(C(=O)N(CCO)Cc2cnc(N)c3cn[nH]c23)ccc1-c1cccc(Cl)c1` [Compound 046]: the IC50 is below 100 nM.
In the case of `CCOc1cc(C(=O)N(CCO)Cc2cnc(N)c3cn[nH]c23)ccc1-c1cccc(F)c1` [Compound 047] it was 100 to 500 nM; in that of `CCOc1cc(C(=O)N(CCO)Cc2cnc(NC)c3cn[nH]c23)ccc1-c1cccc(F)c1` [Compound 048], below 100 nM; in that of `CCOc1cc(C(=O)N(CCO)Cc2cnc(NC)c3cn[nH]c23)ccc1-c1cccc(Cl)c1` [Compound 049], below 100 nM.
`CCOc1cc(C(=O)N(CCO)Cc2cnc(CNC)c3cn[nH]c23)ccc1-c1cccc(F)c1` [Compound 050] registered an IC50 of 1000 to 15000 nM.
As to `CCOc1cc(C(=O)N(CCO)Cc2cnc(C)c3cn[nH]c23)ccc1-c1cccc(F)c1` [Compound 051], the IC50 is below 100 nM.
Under `CCOc1cc(C(=O)N(Cc2cnc(C)c3cn[nH]c23)C(C)CO)ccc1-c1cccc(F)c1` (stereo not drawn) [Compound 052] stands above 15000 nM; under `CCOc1cc(C(=O)N(Cc2cnc(C)c3cn[nH]c23)CC(C)(C)O)ccc1-c1cccc(F)c1` [Compound 053], below 100 nM; under `CCOc1cc(C(=O)N(Cc2cnc(C)c3cn[nH]c23)C2COC2)ccc1-c1cccc(F)c1` [Compound 054], above 15000 nM.
Compound `CCOc1cc(C(=O)N(CCN)Cc2cncc3cn[nH]c23)ccc1-c1cccc(F)c1` [Compound 055] yielded an IC50 below 100 nM.
With `CCOc1cc(C(=O)N(Cc2cnc(C)c3cn[nH]c23)[C@H]2CC[C@@H]2O)ccc1-c1cccc(F)c1` [Compound 056], the IC50 was below 100 nM.
The compound `CCOc1cc(C(=O)N(Cc2cnc(C)c3cn[nH]c23)[C@@H]2CC[C@H]2O)ccc1-c1cccc(F)c1` [Compound 057] yielded an IC50 of 100 to 500 nM.
